Assay results as given in ChEMBL document CHEMBL1909559, “Design, synthesis, and biological evaluation of benzodiazepine-based SUMO-specific protease 1 inhibitors” (Bioorg Med Chem Lett, 2011).

Experiments:
[1] = molecular target: T1, Sentrin-specific protease 1 (Homo sapiens, UniProt Q9P0U3); experiment: Inhibition of histidine-tagged human SENP1 catalytic domain preincubated for 10 mins by SUMO-CHOP-PLA2 reporter fluorescence assay
T1 sequence (Q9P0U3 whole entry): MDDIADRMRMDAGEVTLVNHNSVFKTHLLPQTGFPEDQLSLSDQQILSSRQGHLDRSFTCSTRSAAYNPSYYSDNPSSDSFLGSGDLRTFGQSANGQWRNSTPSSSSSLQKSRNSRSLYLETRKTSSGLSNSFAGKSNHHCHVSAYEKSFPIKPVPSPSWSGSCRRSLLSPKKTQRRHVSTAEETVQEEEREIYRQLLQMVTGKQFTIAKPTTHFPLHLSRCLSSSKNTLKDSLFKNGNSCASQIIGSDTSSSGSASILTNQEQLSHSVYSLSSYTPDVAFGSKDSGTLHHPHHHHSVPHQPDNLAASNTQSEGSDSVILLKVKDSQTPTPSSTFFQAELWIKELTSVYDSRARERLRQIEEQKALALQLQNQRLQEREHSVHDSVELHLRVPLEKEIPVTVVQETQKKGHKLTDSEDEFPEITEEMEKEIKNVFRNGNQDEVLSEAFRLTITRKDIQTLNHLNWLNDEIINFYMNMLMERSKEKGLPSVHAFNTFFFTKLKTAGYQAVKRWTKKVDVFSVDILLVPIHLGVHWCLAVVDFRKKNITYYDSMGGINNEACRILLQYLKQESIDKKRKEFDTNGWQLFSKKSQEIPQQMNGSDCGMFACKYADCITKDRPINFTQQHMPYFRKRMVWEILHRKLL

PC-3 = experiment: Cytotoxicity against human PC3 cells

| Structure (SMILES) | IC50 [1] [µM] | IC50 (PC-3) [µM] |
| --- | --- | --- |
| CC(C)(C)OC(=O)Nc1ccc(C(=O)NC2N=C(c3ccccc3)c3ccccc3N(CC=O)C2=O)cc1 (stereo not drawn) | > 100 | – |
| CC(C)(C)OC(=O)Nc1cccc(C(=O)NC2N=C(c3ccccc3)c3ccccc3N(CC=O)C2=O)c1 (stereo not drawn) | > 100 | – |
| O=C(NC1N=C(c2ccccc2)c2ccccc2N(CCO)C1=O)OCc1ccccc1 (stereo not drawn) | > 100 | – |
| O=CCCN1C(=O)C(NC(=O)OCc2ccccc2)N=C(c2ccccc2)c2ccccc21 (stereo not drawn) | > 100 | – |
| CC(=O)Nc1cccc(C(=O)NC2N=C(c3ccccc3)c3ccccc3N(CC=O)C2=O)c1 (stereo not drawn) | > 100 | – |
| O=CCN1C(=O)C(NC(=O)OCc2ccccc2)N=Cc2ccccc21 (stereo not drawn) | > 100 | – |
| O=CCN1C(=O)C(NC(=O)c2cccc(NC(=O)OCc3ccccc3)c2)N=C(c2ccccc2)c2ccccc21 (stereo not drawn) | – | 35.7 |
| O=CCN1C(=O)C(NC(=O)c2ccc(NC(=O)OCc3ccccc3)cc2)N=C(c2ccccc2)c2ccccc21 (stereo not drawn) | – | 13 |
